Measured values from patent US20130023532A1, “INDAZOLYL-PYRIMIDINES AS KINASE INHIBITORS” (priority 2010, published 2013).
Structures can show the parent of a compound that is named as a salt.

Biological target: T1, RIPK2 (Homo sapiens, UniProt O43353)
T1 construct: Full length FLAG His tagged RIPK2 was purified from a Baculovirus expression system; FLAG (N); 6His (N); made in house; host or cells: Spodoptera frugiperda (Sf9) insect cells, baculovirus
Assay: Fluorescent polarization based binding assay at the ATP binding pocket of RIPK2
Details: FP competition with fluorescently labeled ATP competitive ligand (5 nM); full length FLAG His tagged RIPK2; mean of a minimum of 2 experiments; read-out: mean pIC50 (converted)
Text: A fluorescent polarization based binding assay was developed to quantitate interaction of novel test compounds at the ATP binding pocket of RIPK2, by competition with a fluorescently labeled ATP competitive ligand. Full length FLAG His tagged RIPK2 was purified from a Baculovirus expression system and was used at a final assay concentration of twice the KDapparent. A fluorescent labeled ligand (5-({[2-({[3-({4-[(5-hydroxy-2-methylphenyl)amino]-2-pyrimidinyl}amino)phenyl]carbonyl}amino)ethyl]amino}carbonyl)-2-(6-hydroxy-3-oxo-3H-xanthen-9-yl)benzoic acid, prepared as described below) was used at a final assay concentration of 5 nM. Both the enzyme and ligand were prepared in solutions in 50 mM HEPES pH7.5, 150 mM NaCl, 10 mM MgCl2, 1 mM DTT, and 1 mM CHAPS. Test compounds were prepared in 100% DMSO and 100 nL was dispensed to individual wells of a multiwell plate. Next, 5 ul RIPK2 was added to the test compounds at twice the final assay concentration, and incubated at room temperature for 10 minutes. […] Finally, samples were read on an instrument capable of measuring fluorescent polarization. Test compound inhibition was expressed as percent (%) inhibition of internal assay controls.
For concentration response experiments, normalized data were fit and pIC50 s determined using conventional techniques. […]

T1 sequence (O43353 whole entry): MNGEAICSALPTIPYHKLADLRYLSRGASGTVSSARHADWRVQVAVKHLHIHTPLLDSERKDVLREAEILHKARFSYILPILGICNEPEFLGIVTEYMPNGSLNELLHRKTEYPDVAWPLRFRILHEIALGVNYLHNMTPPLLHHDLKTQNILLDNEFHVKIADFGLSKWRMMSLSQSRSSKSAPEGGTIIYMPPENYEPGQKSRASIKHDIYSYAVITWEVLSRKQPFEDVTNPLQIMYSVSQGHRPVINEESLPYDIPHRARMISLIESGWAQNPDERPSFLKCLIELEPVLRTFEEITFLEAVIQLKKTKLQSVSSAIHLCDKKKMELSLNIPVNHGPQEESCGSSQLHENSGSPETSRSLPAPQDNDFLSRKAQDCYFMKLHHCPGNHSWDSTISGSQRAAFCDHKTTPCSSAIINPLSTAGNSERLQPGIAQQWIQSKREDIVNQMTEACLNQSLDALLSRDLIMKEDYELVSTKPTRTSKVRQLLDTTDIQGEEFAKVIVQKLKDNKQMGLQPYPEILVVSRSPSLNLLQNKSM

IC50 [µM] | SMILES
0.0501 | COc1ccc2[nH]nc(Nc3ccnc(Nc4ccc(F)c(S(C)(=O)=O)c4)n3)c2c1 [Example 27, N^2-[4-fluoro-3-(methylsulfonyl)phenyl]-N^4-[5-(methyloxy)-1H-indazol-3-yl]-2,4-pyrimidinediamine trifluoroacetate]
0.00794 | COc1ccc2[nH]nc(Nc3ccnc(Nc4cc(OC)c(OC)c(OC)c4)n3)c2c1 [Example 12, N^4-[5-(methyloxy)-1H-indazol-3-yl]-N^2-[3,4,5-tris(methyloxy)phenyl]-2,4-pyrimidinediamine]
